{"source": "patent US20240124412A1", "about": "“IKAROS ZINC FINGER FAMILY DEGRADERS AND USES THEREOF” (Gilead Sciences, Inc., priority 2021, published 2024)", "key": {"[1]": {"target": "T1, IKZF1 (Homo sapiens, UniProt Q13422+Q96SW2)", "T1 construct": "expressed in transfected cells", "T1 sequence (Q13422 whole entry)": "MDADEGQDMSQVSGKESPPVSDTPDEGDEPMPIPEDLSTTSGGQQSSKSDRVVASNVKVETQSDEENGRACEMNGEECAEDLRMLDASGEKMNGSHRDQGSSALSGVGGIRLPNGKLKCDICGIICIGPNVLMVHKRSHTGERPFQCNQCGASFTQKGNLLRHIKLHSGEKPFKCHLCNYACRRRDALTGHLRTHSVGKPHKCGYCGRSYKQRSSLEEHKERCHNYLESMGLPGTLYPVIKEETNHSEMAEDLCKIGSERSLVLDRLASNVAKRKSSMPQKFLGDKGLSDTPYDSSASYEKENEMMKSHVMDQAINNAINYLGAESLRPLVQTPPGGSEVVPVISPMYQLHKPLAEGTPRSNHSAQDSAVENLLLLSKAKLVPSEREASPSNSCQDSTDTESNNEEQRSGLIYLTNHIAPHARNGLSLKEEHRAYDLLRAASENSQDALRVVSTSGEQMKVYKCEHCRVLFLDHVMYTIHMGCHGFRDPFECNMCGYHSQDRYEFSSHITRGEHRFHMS", "T1 sequence (Q96SW2 whole entry)": "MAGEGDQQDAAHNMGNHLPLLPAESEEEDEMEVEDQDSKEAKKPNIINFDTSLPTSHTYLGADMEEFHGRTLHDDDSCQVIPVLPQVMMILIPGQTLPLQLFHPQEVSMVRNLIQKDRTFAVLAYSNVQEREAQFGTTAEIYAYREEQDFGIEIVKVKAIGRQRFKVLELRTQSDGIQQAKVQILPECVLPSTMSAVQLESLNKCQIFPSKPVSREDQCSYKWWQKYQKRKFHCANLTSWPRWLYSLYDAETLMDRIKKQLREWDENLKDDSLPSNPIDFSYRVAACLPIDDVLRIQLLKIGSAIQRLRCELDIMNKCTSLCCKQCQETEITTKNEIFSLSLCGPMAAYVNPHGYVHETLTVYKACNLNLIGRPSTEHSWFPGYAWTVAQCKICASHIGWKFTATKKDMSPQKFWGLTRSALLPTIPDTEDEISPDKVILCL", "T1 sequence (Q16531 whole entry partner)": "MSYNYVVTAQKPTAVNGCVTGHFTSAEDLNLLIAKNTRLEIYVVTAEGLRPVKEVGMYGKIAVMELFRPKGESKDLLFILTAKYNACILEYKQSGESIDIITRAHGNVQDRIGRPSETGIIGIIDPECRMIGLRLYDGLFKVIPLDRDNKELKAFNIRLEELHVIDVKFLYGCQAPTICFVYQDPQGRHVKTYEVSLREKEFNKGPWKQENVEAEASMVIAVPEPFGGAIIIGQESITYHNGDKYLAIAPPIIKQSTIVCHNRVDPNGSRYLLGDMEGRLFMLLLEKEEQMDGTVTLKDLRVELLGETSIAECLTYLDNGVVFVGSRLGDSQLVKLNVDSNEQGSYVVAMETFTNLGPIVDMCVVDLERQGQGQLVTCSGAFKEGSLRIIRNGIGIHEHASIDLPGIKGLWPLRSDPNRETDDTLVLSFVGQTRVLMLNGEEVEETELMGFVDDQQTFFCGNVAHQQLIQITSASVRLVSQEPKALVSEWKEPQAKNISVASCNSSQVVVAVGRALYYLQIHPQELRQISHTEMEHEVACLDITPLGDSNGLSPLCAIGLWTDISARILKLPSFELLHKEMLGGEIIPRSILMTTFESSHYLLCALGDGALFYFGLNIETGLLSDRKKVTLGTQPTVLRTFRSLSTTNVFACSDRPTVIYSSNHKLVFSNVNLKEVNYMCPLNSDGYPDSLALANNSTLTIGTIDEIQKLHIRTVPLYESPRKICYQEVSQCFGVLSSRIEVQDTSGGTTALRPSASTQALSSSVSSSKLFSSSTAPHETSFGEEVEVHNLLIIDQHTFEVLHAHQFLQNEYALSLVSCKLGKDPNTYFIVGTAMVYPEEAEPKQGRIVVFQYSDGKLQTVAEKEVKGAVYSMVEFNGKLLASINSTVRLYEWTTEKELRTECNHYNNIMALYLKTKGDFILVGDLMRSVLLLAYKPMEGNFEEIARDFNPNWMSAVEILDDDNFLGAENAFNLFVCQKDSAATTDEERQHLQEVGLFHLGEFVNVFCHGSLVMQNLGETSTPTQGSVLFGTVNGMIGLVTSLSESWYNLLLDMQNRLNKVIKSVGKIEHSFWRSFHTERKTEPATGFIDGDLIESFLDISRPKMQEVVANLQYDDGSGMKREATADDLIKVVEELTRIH", "assay": "HiBiT protein tagging assay, in vitro IKZF1 degradation (HEK293)", "type": "cell-based", "details": "HEK293, 18-24 hr incubation, normalized to DMSO control; for DC50: read-out: IKZF1 EC50; for Dmax: read-out: IKZF1 Dmax (maximum degradation at the highest concentration tested)", "how_it_was_run": "(§1)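 Flp-In T-REx HEK293 pools stably expressing C-terminal HiBiT-tagged IKZF1 or IKZF2 were induced overnight with 1 μg/ml doxycycline. Cells were then treated with serially diluted compound for 18-24 hr at 37 °C and read by Nano-Glo lytic luminescence. Data were normalized to 0.5% DMSO as POC; EC50 and Dmax (maximum degradation at highest concentration tested) reported.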"}, "[2]": {"target": "T2, IKZF2 (Homo sapiens, UniProt Q96SW2+Q9UKS7)", "T2 construct": "expressed in transfected cells", "T2 sequence (Q9UKS7 1-500 isoform Q9UKS7-2)": "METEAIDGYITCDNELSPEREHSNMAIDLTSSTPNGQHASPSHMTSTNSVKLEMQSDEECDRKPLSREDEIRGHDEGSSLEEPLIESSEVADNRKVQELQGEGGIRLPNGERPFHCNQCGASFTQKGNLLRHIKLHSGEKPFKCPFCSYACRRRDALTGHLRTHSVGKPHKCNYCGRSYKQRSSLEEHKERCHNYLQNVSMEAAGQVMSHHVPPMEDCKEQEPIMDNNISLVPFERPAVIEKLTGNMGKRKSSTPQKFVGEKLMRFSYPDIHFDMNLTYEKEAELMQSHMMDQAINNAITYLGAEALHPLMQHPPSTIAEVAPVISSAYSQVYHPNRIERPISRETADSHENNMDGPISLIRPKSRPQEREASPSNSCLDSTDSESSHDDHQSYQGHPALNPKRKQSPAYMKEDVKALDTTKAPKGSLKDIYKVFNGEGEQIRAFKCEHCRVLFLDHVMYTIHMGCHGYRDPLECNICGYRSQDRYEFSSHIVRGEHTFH", "T2 sequence (Q96SW2 whole entry)": "as the sequence (Q96SW2 whole entry) above", "T2 sequence (Q16531 whole entry partner)": "as the sequence (Q16531 whole entry partner) above", "assay": "HiBiT protein tagging assay, in vitro IKZF2 degradation (HEK293)", "type": "cell-based", "details": "HEK293, 18-24 hr incubation, normalized to DMSO control; for Dmax: HEK293, HiBiT assay, read-out: IKZF2 Dmax (maximum degradation at the highest concentration tested); for DC50: HiBiT assay, read-out: IKZF2 EC50", "how_it_was_run": "as §1"}}, "data": [{"smiles": "O=C1CCC(N2Cc3cc(CNC45CC(C4)C5)ccc3C2=O)C(=O)N1", "note": "(centres unmarked) [Example 15, 3-(5-((bicyclo[1.1.1]pentan-1-ylamino)methyl)-1-oxoisoindolin-2-yl)piperidine-2,6-dione]", "values": [{"measurement": "DC50", "setting": "[1]", "result": "> 10000", "unit": "nM"}, {"measurement": "Dmax", "setting": "[2]", "result": 29, "unit": "%"}, {"measurement": "DC50", "setting": "[2]", "result": 1800, "unit": "nM"}]}, {"smiles": "O=C1CCC(N2Cc3cc(CN[C@H]4CCC[C@H](Cc5ccccc5)C4)ccc3C2=O)C(=O)N1", "note": "(relative stereo) [Example 11, 3-(5-((((1,3-trans)-3-benzylcyclohexyl)amino)methyl)-1-oxoisoindolin-2-yl)piperidine-2,6-dione]", "values": [{"measurement": "Dmax", "setting": "[1]", "result": 67, "unit": "%"}, {"measurement": "DC50", "setting": "[1]", "result": 25, "unit": "nM"}, {"measurement": "Dmax", "setting": "[2]", "result": 68, "unit": "%"}, {"measurement": "DC50", "setting": "[2]", "result": 81, "unit": "nM"}]}, {"smiles": "O=C1CCC(N2Cc3cc(CNC4CCC5(CCc6ccccc65)CC4)ccc3C2=O)C(=O)N1", "note": "(centres unmarked) [Example 114, 3-(5-(((2′,3′-dihydrospiro[cyclohexane-1,1′-inden]-4-yl)amino)methyl)-1-oxoisoindolin-2-yl)piperidine-2,6-dione]", "values": [{"measurement": "Dmax", "setting": "[1]", "result": 62, "unit": "%"}, {"measurement": "DC50", "setting": "[1]", "result": 52, "unit": "nM"}, {"measurement": "Dmax", "setting": "[2]", "result": 78, "unit": "%"}, {"measurement": "DC50", "setting": "[2]", "result": 68, "unit": "nM"}]}, {"smiles": "O=C1CCC(N2Cc3cc(CN[C@H](CO)c4ccccc4)ccc3C2=O)C(=O)N1", "note": "(some centres unmarked) [Example 52]", "values": [{"measurement": "DC50", "setting": "[1]", "result": "> 10000", "unit": "nM"}, {"measurement": "Dmax", "setting": "[2]", "result": 22, "unit": "%"}, {"measurement": "DC50", "setting": "[2]", "result": 472, "unit": "nM"}]}, {"smiles": "C[C@H]1CC[C@@H](NCc2ccc3c(c2)CN(C2CCC(=O)NC2=O)C3=O)CN1Cc1ccccc1", "note": "(stereo partly drawn) [Example 119, 3-(5-((((3R,6S)-1-benzyl-6-methylpiperidin-3-yl)amino)methyl)-1-oxoisoindolin-2-yl)piperidine-2,6-dione]", "values": [{"measurement": "Dmax", "setting": "[1]", "result": 94, "unit": "%"}, {"measurement": "DC50", "setting": "[1]", "result": 17, "unit": "nM"}, {"measurement": "Dmax", "setting": "[2]", "result": 93, "unit": "%"}, {"measurement": "DC50", "setting": "[2]", "result": 105, "unit": "nM"}]}, {"smiles": "O=C1CCC(N2Cc3cc(CN[C@@H]4CCC[C@H](C(=O)c5ccccc5)C4)ccc3C2=O)C(=O)N1", "note": "(some centres unmarked) [Example 129]", "values": [{"measurement": "Dmax", "setting": "[1]", "result": 60, "unit": "%"}, {"measurement": "DC50", "setting": "[1]", "result": 113, "unit": "nM"}, {"measurement": "Dmax", "setting": "[2]", "result": 60, "unit": "%"}, {"measurement": "DC50", "setting": "[2]", "result": 193, "unit": "nM"}]}, {"smiles": "O=C1CCC(N2Cc3cc(CNC4CC(c5ccccc5)CN(Cc5ccccc5)C4)ccc3C2=O)C(=O)N1", "note": "(centres unmarked) [Example 109, 3-(5-(((1-benzyl-5-phenylpiperidin-3-yl)amino)methyl)-1-oxoisoindolin-2-yl)piperidine-2,6-dione]", "values": [{"measurement": "Dmax", "setting": "[1]", "result": 71, "unit": "%"}, {"measurement": "DC50", "setting": "[1]", "result": 45, "unit": "nM"}, {"measurement": "Dmax", "setting": "[2]", "result": 30, "unit": "%"}, {"measurement": "DC50", "setting": "[2]", "result": 121, "unit": "nM"}]}, {"smiles": "O=C1CCC(N2Cc3cc(CN[C@H]4CCC[C@@H](Cc5ccccc5)C4)ccc3C2=O)C(=O)N1", "note": "(some centres unmarked) [Example 116]", "values": [{"measurement": "Dmax", "setting": "[1]", "result": 82, "unit": "%"}, {"measurement": "DC50", "setting": "[1]", "result": 23, "unit": "nM"}, {"measurement": "Dmax", "setting": "[2]", "result": 81, "unit": "%"}, {"measurement": "DC50", "setting": "[2]", "result": 68, "unit": "nM"}]}, {"smiles": "O=C1CCC(N2Cc3cc(CNC4CCN(c5ccncc5)CC4)ccc3C2=O)C(=O)N1", "note": "(centres unmarked) [Example 37, 3-(1-oxo-5-(((1-(pyridin-4-yl)piperidin-4-yl)amino)methyl)isoindolin-2-yl)piperidine-2,6-dione]", "values": [{"measurement": "Dmax", "setting": "[1]", "result": 56, "unit": "%"}, {"measurement": "DC50", "setting": "[1]", "result": 667, "unit": "nM"}, {"measurement": "Dmax", "setting": "[2]", "result": 76, "unit": "%"}, {"measurement": "DC50", "setting": "[2]", "result": 1000, "unit": "nM"}]}, {"smiles": "C[C@@H](CO)NCc1ccc2c(c1)CN(C1CCC(=O)NC1=O)C2=O", "note": "(some centres unmarked) [Example 53]", "values": [{"measurement": "Dmax", "setting": "[1]", "result": 24, "unit": "%"}, {"measurement": "DC50", "setting": "[1]", "result": 289, "unit": "nM"}, {"measurement": "Dmax", "setting": "[2]", "result": 20, "unit": "%"}, {"measurement": "DC50", "setting": "[2]", "result": 460, "unit": "nM"}]}, {"smiles": "C[C@@H]1CCCC[C@H]1NCc1ccc2c(c1)CN(C1CCC(=O)NC1=O)C2=O", "note": "(some centres unmarked) [Example 101]", "values": [{"measurement": "Dmax", "setting": "[1]", "result": 23, "unit": "%"}, {"measurement": "DC50", "setting": "[1]", "result": 107, "unit": "nM"}, {"measurement": "Dmax", "setting": "[2]", "result": 71, "unit": "%"}, {"measurement": "DC50", "setting": "[2]", "result": 157, "unit": "nM"}]}, {"smiles": "O=C1CCC(N2Cc3cc(CN[C@H]4CC[C@@](O)(c5ccccc5)CC4)ccc3C2=O)C(=O)N1", "note": "(some centres unmarked) [Example 66]", "values": [{"measurement": "Dmax", "setting": "[1]", "result": 77, "unit": "%"}, {"measurement": "DC50", "setting": "[1]", "result": 102, "unit": "nM"}, {"measurement": "Dmax", "setting": "[2]", "result": 83, "unit": "%"}, {"measurement": "DC50", "setting": "[2]", "result": 319, "unit": "nM"}]}, {"smiles": "O=C1CCC(N2Cc3cc(CN[C@@H]4CCC[C@H](COCc5ccccc5)C4)ccc3C2=O)C(=O)N1", "note": "(some centres unmarked) [Example 146]", "values": [{"measurement": "Dmax", "setting": "[1]", "result": 93, "unit": "%"}, {"measurement": "DC50", "setting": "[1]", "result": 5, "unit": "nM"}, {"measurement": "Dmax", "setting": "[2]", "result": 94, "unit": "%"}, {"measurement": "DC50", "setting": "[2]", "result": 9, "unit": "nM"}]}, {"smiles": "CC1(C)CCC(NCc2ccc3c(c2)CN(C2CCC(=O)NC2=O)C3=O)CC1", "note": "(centres unmarked) [Example 140]", "values": [{"measurement": "Dmax", "setting": "[1]", "result": 60, "unit": "%"}, {"measurement": "DC50", "setting": "[1]", "result": 55, "unit": "nM"}, {"measurement": "Dmax", "setting": "[2]", "result": 86, "unit": "%"}, {"measurement": "DC50", "setting": "[2]", "result": 61, "unit": "nM"}]}, {"smiles": "CCN1CCC(NCc2ccc3c(c2)CN(C2CCC(=O)NC2=O)C3=O)CC1", "note": "(centres unmarked) [Example 48, 3-(5-(((1-Ethylpiperidin-4-yl)amino)methyl)-1-oxoisoindolin-2-yl)piperidine-2,6-dione]", "values": [{"measurement": "Dmax", "setting": "[1]", "result": 25, "unit": "%"}, {"measurement": "DC50", "setting": "[1]", "result": 655, "unit": "nM"}, {"measurement": "Dmax", "setting": "[2]", "result": 32, "unit": "%"}, {"measurement": "DC50", "setting": "[2]", "result": 2800, "unit": "nM"}]}, {"smiles": "O=C1CCC(N2Cc3cc(CNC4CCC5(CCC5)CC4)ccc3C2=O)C(=O)N1", "note": "(centres unmarked) [Example 59]", "values": [{"measurement": "Dmax", "setting": "[1]", "result": 62, "unit": "%"}, {"measurement": "DC50", "setting": "[1]", "result": 50, "unit": "nM"}, {"measurement": "Dmax", "setting": "[2]", "result": 74, "unit": "%"}, {"measurement": "DC50", "setting": "[2]", "result": 55, "unit": "nM"}]}, {"smiles": "O=C1CCC(N2Cc3cc(CNCCc4ccccc4Cl)ccc3C2=O)C(=O)N1", "note": "(centres unmarked) [Example 44, 3-(5-(((2-chlorophenethyl)amino)methyl)-1-oxoisoindolin-2-yl)piperidine-2,6-dione]", "values": [{"measurement": "Dmax", "setting": "[1]", "result": 72, "unit": "%"}, {"measurement": "DC50", "setting": "[1]", "result": 38, "unit": "nM"}, {"measurement": "Dmax", "setting": "[2]", "result": 32, "unit": "%"}, {"measurement": "DC50", "setting": "[2]", "result": 240, "unit": "nM"}]}, {"smiles": "CCCC[C@H]1CC[C@H](NCc2ccc3c(c2)CN(C2CCC(=O)NC2=O)C3=O)CC1", "note": "(some centres unmarked) [Example 79]", "values": [{"measurement": "Dmax", "setting": "[1]", "result": 30, "unit": "%"}, {"measurement": "DC50", "setting": "[1]", "result": 169, "unit": "nM"}, {"measurement": "Dmax", "setting": "[2]", "result": 69, "unit": "%"}, {"measurement": "DC50", "setting": "[2]", "result": 218, "unit": "nM"}]}, {"smiles": "O=C1CCC(N2Cc3cc(CN[C@@H]4CCCN(Cc5ccc(Cl)cc5)C4)ccc3C2=O)C(=O)N1", "note": "(stereo partly drawn) [Example 100, 3-(5-((((R)-1-(4-chlorobenzyl)piperidin-3-yl)amino)methyl)-1-oxoisoindolin-2-yl)piperidine-2,6-dione]", "values": [{"measurement": "Dmax", "setting": "[1]", "result": 98, "unit": "%"}, {"measurement": "DC50", "setting": "[1]", "result": 1, "unit": "nM"}, {"measurement": "Dmax", "setting": "[2]", "result": 97, "unit": "%"}, {"measurement": "DC50", "setting": "[2]", "result": 6, "unit": "nM"}]}]}
